Patent publication US20100256145A1, “USE OF KCNQ POTASSIUM CHANNEL OPENERS FOR REDUCING SYMPTOMS OF OR TREATING DISORDERS OR CONDITIONS WHEREIN THE DOPAMINERGIC SYSTEM IS DISRUPTED” (H. LUNDBECK A/S, priority 2007, published 2010)
Marks after values point to notes of the source that are not given here.

Columns and labels:
[1] = test system: social behaviours in the Mutual Resident Intruder rat test; assay: Mutual Resident Intruder rat test; details: for % of time Agonistic behaviour: sum of defensive and aggressive behaviour
[2] = test system: social behaviours in the rat Tetradic Encounter test; assay: Rat Tetradic Encounter test; details: for % of time Agonistic behaviour: sum of defensive and aggressive behaviour
[3] = test system: choice of the large-but-delayed reward (impulsivity); assay: Rat T-maze procedure: large-but-delayed vs small-but-immediate reward; assay type: in vivo; details: juvenile Wistar rats; for % Choice of the large but delayed reward on Control sessions: placebo administered before control (pre-drug and post-drug) sessions of the same group
Experimental: Subjects. male Wistar AF rats (28-41 days old) (Centre d′Elevage René Janvier, France) were used. […] During the whole study, tap water was provided ad libitum. Food was restricted to 5-10 g/day/animal in order to maintain animals at 65-75% of their free feeding weight
Experimental procedure. The experiments were performed in two identical T-maze apparatus constructed from opaque grey plastic tubing and consisting of a starting runway (30 cm long) and two arms (35 cm long) each leading to a rectangular black plastic goal box (18 cm large, 30 cm wide, 10 cm high). Removable grey plastic guillotine doors could be inserted into the vertical clefts, situated at the entry of the starting runway and at each end of the arms. One of the goal-boxes (left or right, depending on the rats) was constantly provided with a large reward, the other with a small reward. Large and small rewards consisted, respectively, of 5 and 1 pellets (20 mg, Technical & Scientific Equipment GmbH, Germany). The pellets were placed in a translucent food-cup before each trial.
First phase: habituation. Animals were first subjected to two 5-min sessions of habituation. The rat was gently introduced in the starting runway, which then was closed with a guillotine door inserted in the cleft (referred to as c0 in FIG. 1). The animal was allowed to freely explore the apparatus and to eat food rewards placed in the food cups.
Second phase: pretraining. After a door was placed in the cleft c2 near each goal-box, the rat was introduced in the starting runway. When it entered one of the two arms, a door was inserted behind it in the cleft c1 near the choice area and the door placed in cleft c2 was removed. As soon as the animal entered the goal-box, the door was placed again in the cleft c2. The rat was removed from the goal-box as soon as the pellets were eaten (usually within less than 1 min). The animal was then returned to its home cage for an intertrial interval of 2 to 3 min. Each rat was submitted one to five times/day to five trials sessions in this procedure. Training was initiated when the rat selected the arm giving access to the large reward in more than 14 out of 15 trials.
Third phase: training. Rats underwent one to five times/day five trials training sessions during which a delay was introduced before access to the large reward. After a door was placed in the cleft c2 near each goal-box, the rat was introduced in the starting runway. When it entered one of the two arms, a second door was inserted behind it in the cleft c1 near the choice area, so that rat selecting the arm leading to the large reward could be detained in this arm for a period (referred to as the waiting delay) before having access to the reinforcement. Otherwise, if the animal selected the arm leading to the small reward, the door placed in the cleft c2 was immediately opened, allowing the animal to enter the goal-box. At the beginning of training, the waiting delay was 30 sec. Then, if the percentage of choices of the large and delayed reward remained high (i.e. ≧40%) for more than six sessions, it was increased to 45 sec, and if necessary to 60 sec, 90 sec and finally 120 sec. Drug testing began when the animal selected the large and delayed reward in two trials out of five (or less) in two consecutive sessions and in one trial out of five (or less) in the following session.
Drug testing was conducted over six consecutive test-sessions of five trials each, during which the access to the large reward was preceded by the waiting delay. Test sessions were: Two control pre-drug sessions: control pre-drug session 1 and control pre-drug session 2; Two drug sessions: drug session 1 and drug session 2; Two control post-drug sessions: control post-drug session 1 and control post-drug session 2.

[4] = 1 mg/kg s.c. 30 min before test
[5] = 5 mg/kg s.c. 30 min before test

C[C@H](N)Cc1ccccc1 [Amphetamine, D-amphetamine, reference compound]
% of time Aggressive behaviour ([1]; 0.5 mg/kg (positive control)): 3.9*** % of time
% of time Defensive behaviour ([1]; 0.5 mg/kg (positive control)): 4.0*** % of time
% of time Friendly behaviour ([1]; 0.5 mg/kg (positive control)): 5.3 % of time
% of time Non-social behaviour ([1]; 0.5 mg/kg (positive control)): 86.8*** % of time
% of time Agonistic behaviour ([1]; 0.5 mg/kg (positive control)): 7.9*** % of time
% of time Aggressive behaviour ([2]; 0.5 mg/kg (positive control)): 0.1*** % of time
% of time Defensive behaviour ([2]; 0.5 mg/kg (positive control)): 1.2*** % of time
% of time Friendly behaviour ([2]; 0.5 mg/kg (positive control)): 17.3* % of time
% of time Non-social behaviour ([2]; 0.5 mg/kg (positive control)): 81.4*** % of time
% of time Agonistic behaviour ([2]; 0.5 mg/kg (positive control)): 1.4*** % of time

CNCC[C@@H](Oc1ccccc1C)c1ccccc1 [Atomoxetine, reference compound]
% Choice of the large but delayed reward on Drug sessions ([3]; 1 mg/kg i.p. 30 min before the test): 40.0 ± 2.2 %
% Choice of the large but delayed reward on Control sessions [3]: 10.7 ± 2.3%

COc1cc(N2CCOCC2)cc(C)c1NC(=O)CC1CCCC1 [Compound 2]
% of time Aggressive behaviour [1, 4]: 15.5 % of time
% of time Defensive behaviour [1, 4]: 17.3 % of time
% of time Friendly behaviour [1, 4]: 4.0 % of time
% of time Non-social behaviour [1, 4]: 63.1 % of time
% of time Agonistic behaviour [1, 4]: 32.8*** % of time
% of time Aggressive behaviour [1, 5]: 0.7*** % of time
% of time Defensive behaviour [1, 5]: 0.2*** % of time
% of time Friendly behaviour [1, 5]: 2.4 % of time
% of time Non-social behaviour [1, 5]: 96.6*** % of time
% of time Agonistic behaviour [1, 5]: 0.9*** % of time
% of time Aggressive behaviour [2, 4]: 5.3 % of time
% of time Defensive behaviour [2, 4]: 7.2 % of time
% of time Friendly behaviour [2, 4]: 18.2* % of time
% of time Non-social behaviour [2, 4]: 69.3 % of time
% of time Agonistic behaviour [2, 4]: 12.5 % of time
% of time Aggressive behaviour [2, 5]: 0.4** % of time
% of time Defensive behaviour [2, 5]: 0.8*** % of time
% of time Friendly behaviour [2, 5]: 26.2 % of time
% of time Non-social behaviour [2, 5]: 72.7** % of time
% of time Agonistic behaviour [2, 5]: 1.2*** % of time
% Choice of the large but delayed reward on Drug sessions ([3]; 1 mg/kg s.c. 30 min before the test): 33.3 ± 3.3 %
% Choice of the large but delayed reward on Control sessions [3]: 11.7 ± 2.5%

Cc1cc(N2CCOCC2)nc(C)c1NC(=O)CC(C)(C)C [Compound 3, N-(2,4-dimethyl-6-morpholin-4-yl-pyridin-3-yl)-3,3-dimethylbutyramide]
% of time Aggressive behaviour [1, 4]: 12.0 % of time
% of time Defensive behaviour [1, 4]: 12.3 % of time
% of time Friendly behaviour [1, 4]: 3.4 % of time
% of time Non-social behaviour [1, 4]: 72.3 % of time
% of time Agonistic behaviour [1, 4]: 24.3 % of time
% of time Aggressive behaviour [1, 5]: 0.2*** % of time
% of time Defensive behaviour [1, 5]: 0.2*** % of time
% of time Friendly behaviour [1, 5]: 2.3 % of time
% of time Non-social behaviour [1, 5]: 97.4*** % of time
% of time Agonistic behaviour [1, 5]: 0.3*** % of time
% of time Aggressive behaviour [2, 4]: 5.9 % of time
% of time Defensive behaviour [2, 4]: 8.5 % of time
% of time Friendly behaviour [2, 4]: 20.2 % of time
% of time Non-social behaviour [2, 4]: 65.4 % of time
% of time Agonistic behaviour [2, 4]: 14.4 % of time
% of time Aggressive behaviour [2, 5]: 0.1** % of time
% of time Defensive behaviour [2, 5]: 0.0*** % of time
% of time Friendly behaviour [2, 5]: 20.0 % of time
% of time Non-social behaviour [2, 5]: 79.9*** % of time
% of time Agonistic behaviour [2, 5]: 0.1*** % of time
% Choice of the large but delayed reward on Drug sessions ([3]; 2.5 mg/kg s.c. 30 min before the test): 25.0 ± 6.7 %
% Choice of the large but delayed reward on Control sessions [3]: 8.3 ± 2.8%
